Data on 26 compounds can be found in patent US10221139B2, “Inhibitors of histone demethylases” (Gilead Sciences, Inc., priority 2012, dated 2019).

The IC50 is the concentration that inhibits the measured activity by half. A low value points to greater potency.

The subject of test [1] is demethylation of H3K4 (H3K4me3 mark) in U2OS cells. Kind of test: Histone lysine demethylase immunofluorescence assay, non-transfected U2OS cells (H3K4me3 staining). It counts as cell-based. To be noted: Homo sapiens, 20 hours. Here is the method: Histone Lysine Demethylase Immunofluorescence Assays for IC50 Value Determination, Non-Transfected Cells
U2OS cells were harvested and seeded into multi well plates into media containing compound. The media used was DMEM containing 5% FBS and pen/strep. 20 hours after incubation of cells with compounds, the cells were washed once in PBS, harvested by fixation with formaldehyde 4% aqueous solution, and washed 2 times in PBS. Subsequently, the cells were permeabilized in PBS with 0.2% Triton X-100 for 10 min at room temperature. Blocking was performed in PBS with 0.2% Triton X-100 and 5% FBS for 45 min at room temperature. The cells were incubated with αH3K4me3 primary antibody (Cell Signaling, #9751S) diluted 1:1000 in blocking solution over night at 4° C. After incubation with primary antibody, the cells were washed 3 times with PBS, incubated with secondary antibody diluted 1:1000 (Alexa fluor 594 goat anti rabbit IgG, Invitrogen, A11012) and Hoechst, 20 μg/ml (Sigma, 33342) in blocking solution, and washed again 3 times with PBS. Finally, PBS was added and high throughput imaging and analysis were performed by an IN Cell Analyzer 1000 (GE Healthcare). The IC50 values seen in Table 4 were based on an average measure of the staining of the H3K4me3 mark in cells.

A further test has as its target T1, PLU1 (KDM5B) (Homo sapiens, UniProt Q9UGL1).
T1 construct: (1-752); host or cells: U2OS
T1 sequence (Q9UGL1 1-752): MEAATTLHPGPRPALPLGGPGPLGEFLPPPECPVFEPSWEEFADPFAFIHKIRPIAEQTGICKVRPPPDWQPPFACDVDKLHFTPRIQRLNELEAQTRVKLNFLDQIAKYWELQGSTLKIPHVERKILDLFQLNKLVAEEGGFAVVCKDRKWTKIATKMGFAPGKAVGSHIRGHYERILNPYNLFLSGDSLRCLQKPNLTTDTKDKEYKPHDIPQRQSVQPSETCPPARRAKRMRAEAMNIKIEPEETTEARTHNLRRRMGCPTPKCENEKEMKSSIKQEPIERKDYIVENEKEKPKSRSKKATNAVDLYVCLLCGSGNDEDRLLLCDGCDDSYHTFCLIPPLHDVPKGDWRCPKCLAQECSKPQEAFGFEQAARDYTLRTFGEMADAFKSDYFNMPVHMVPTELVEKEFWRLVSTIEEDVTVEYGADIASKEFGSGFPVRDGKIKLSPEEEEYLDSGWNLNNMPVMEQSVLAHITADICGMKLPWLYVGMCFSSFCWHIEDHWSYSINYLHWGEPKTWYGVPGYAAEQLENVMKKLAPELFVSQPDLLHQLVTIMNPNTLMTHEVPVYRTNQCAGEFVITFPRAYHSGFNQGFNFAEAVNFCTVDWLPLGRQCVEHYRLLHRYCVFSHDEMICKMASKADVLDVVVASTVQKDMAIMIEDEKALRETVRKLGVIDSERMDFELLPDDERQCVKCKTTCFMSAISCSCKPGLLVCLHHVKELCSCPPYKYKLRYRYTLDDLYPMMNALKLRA
In words: Immunofluorescence assay in U2OS cells transfected with pCMVHA PLU1 (H3K4me2 mark). Format: cell-based. The conditions noted are these: 20 hours. Here is the method: U2OS cells were seeded 24 hours before transfection. Transfection was performed with Fugene HD transfection reagent as recommended by the manufacturer. 6 hours after transfection, the cells were harvested and seeded into multi well plates into media containing compound. The media used was DMEM containing 5% FBS and pen/strep. 20 hours after incubation of cells with compounds, the cells were washed once in PBS, harvested by fixation with formaldehyde 4% aqueous solution, and washed 2 times in PBS. Subsequently, the cells were permeabilized in PBS with 0.2% Triton X-100 for 10 min at room temperature. Blocking was performed in PBS with 0.2% Triton X-100 and 5% FBS for 45 min at room temperature. The cells were incubated with primary antibodies diluted 1 μg/ml in blocking solution over night at 4° C. The primary antibodies used in the assays were HA.11 (Covance, MMS-101P) and the antibody detecting the mark specified in the Table 6 below. After incubation with primary antibodies, the cells were washed 3 times with PBS, incubated with secondary antibodies diluted 1:1000 (Alexa fluor 594 goat anti rabbit IgG, Invitrogen, A11012; Alexa flour 488 donkey anti mouse IgG, Invitrogen, A21202) and Hoechst, 20 μg/ml (Sigma, 33342) in blocking solution, and washed again 3 times with PBS. Finally, PBS was added and high throughput imaging and analysis were performed by an IN Cell Analyzer 1000 (GE Healthcare). The robot software analyzed individual cells and divided these into HA^+ (transfected cells) and HA^− (non-transfected cells). The IC50 values in Table 7 below were based on an average measure of the staining of the mark specified in the Table 6 below in the transfected cells.

`O=C(CNCc1cc(C(=O)O)ccn1)NC1CCN(CCCc2ccccc2)CC1` [drawing 223, 2-{[({[1-(3-phenylpropyl)piperidin-4-yl]carbamoyl}methyl)amino]methyl} pyridine-4-carboxylic acid] yielded an IC50 in test [1] above 50 µM.

On to `COC(=O)c1ccnc(CNCCCN2CCCC2)c1` [drawing 224, methyl 2-({[3-(pyrrolidin-1-yl)propyl]amino}methyl)pyridine-4-carboxylate], for which, in test [1], the IC50 is 1 to 50 µM. Still for that read-out and setting: the figure for `CCN(CC)CCCCNCc1cc(C(=O)O)ccn1` [drawing 225, 2-({[4-(diethylamino)butyl]amino}methyl) pyridine-4-carboxylic acid] is 1 to 50 µM; for `CCN(CCN(C)C)C(=O)CNCc1cc(C(=O)O)ccn1` [drawing 226, 2-{[({[2-(dimethylamino)ethyl](ethyl)carbamoyl}methyl)amino]methyl}pyridine-4-carboxylic acid] it is 1 to 50 µM. For the compound `CCN(CC)CCCCNCc1cc(C(=O)Oc2ccc(OC)cc2)ccn1` [drawing 227, 4-methoxyphenyl 2-({[4-(diethylamino)butyl]amino}methyl) pyridine-4-carboxylate], the half-maximal inhibitory concentration (IC50) in test [1] was below 1 µM. On the same count and under the same terms, the figure for `CCOC(=O)c1ccccc1OC(=O)c1ccnc(CNCCCCN(CC)CC)c1` [drawing 228, 2-(ethoxycarbonyl)phenyl 2-({[4-(diethylamino)butyl]amino}methyl) pyridine-4-carboxylate] is below 1 µM. The compound `CCN(CC)CCCCNCc1cc(C(=O)OCCN(C)C)ccn1` [drawing 229, 2-(dimethylamino)ethyl 2-({[4-(diethylamino)butyl]amino}methyl) pyridine-4-carboxylate] returned an IC50 in test [1] of 1 to 50 µM. Still for that read-out and setting: the figure for `CCN(CC)CCCCNCc1cc(C(=O)OCCCN(C)C)ccn1` [drawing 230, 3-(dimethylamino)propyl 2-({[4-(diethylamino)butyl]amino}methyl) pyridine-4-carboxylate] is 1 to 50 µM; for `CCOC(=O)Nc1ccc(COC(=O)c2ccnc(CNCCCCN(CC)CC)c2)cc1` [drawing 231, {4-[(ethoxycarbonyl)amino]phenyl}methyl 2-({[4-(diethylamino)butyl]amino}methyl) pyridine-4-carboxylate] it is below 1 µM. Same read-out and setting: the figure for `CCN(CC)CCCCNCc1cc(C(=O)Oc2c(OC)cccc2OC)ccn1` [drawing 232, 2,6-dimethoxyphenyl 2-({[4-(diethylamino)butyl]amino}methyl) pyridine-4-carboxylate] is below 1 µM. Take `CCN(CCN(C)C)C(=O)CNCc1cc(C(=O)Oc2ccc(OC)cc2)ccn1` [drawing 234, 4-methoxyphenyl 2-{[({[2-(dimethylamino)ethyl](ethyl)carbamoyl}methyl)amino]methyl}pyridin-4-carboxylate]: in test [1], the IC50 was below 1 µM. On the same count and under the same terms, the figure for `CCOC(=O)c1ccccc1OC(=O)c1ccnc(CNCC(=O)N(CC)CCN(C)C)c1` [drawing 235, 2-(ethoxycarbonyl)phenyl 2-{[({[2-(dimethylamino)ethyl](ethyl)carbamoyl}methyl)amino]methyl}pyridine-4-carboxylate] is below 1 µM; for `CCOC(=O)N(C)c1ccc(COC(=O)c2ccnc(CNCCCCN(CC)CC)c2)cc1` [drawing 236] it is below 1 µM; for `CCN(CCN(C)C)C(=O)CNCc1cc(C(=O)Oc2ccc(C(C)(C)C)cc2)ccn1` [drawing 237, 4-tert-butylphenyl 2-{[({[2-(dimethylamino)ethyl](ethyl)carbamoyl}methyl)amino]methyl}pyridine-4-carboxylate] it is below 1 µM.

`CCN(CCN(C)C)C(=O)CNCc1cc(C(=O)OC(C)CC(C)=O)ccn1` (centres unmarked) [drawing 238, 4-oxopentan-2-yl 2-{[({[2-(dimethylamino)ethyl](ethyl)carbamoyl}methyl)amino]methyl}pyridine-4-carboxylate] had a 50% inhibitory concentration (IC50) in test [1] below 1 µM. For the compound `CCN(CCN(C)C)C(=O)CNCc1cc(C(=O)OC(C)CCNC(=O)C(F)(F)F)ccn1` (centres unmarked) [drawing 239, 4-(trifluoroacetamido)butan-2-yl 2-{[({[2-(dimethylamino)ethyl](ethyl)carbamoyl}methyl)amino]methyl}pyridin-4-carboxylate], the IC50 in test [1] was below 1 µM.

`CCN(CCN(C)C)C(=O)CNCc1cc(C(=O)OC(C)CCN(C)C(=O)C(F)(F)F)ccn1` (centres unmarked) [drawing 240, 4-(2,2,2-trifluoro-N-methylacetamido)butan-2-yl 2-{[({[2-(dimethylamino)ethyl](ethyl)carbamoyl}methyl)amino]methyl}pyridine-4-carboxylate]: the IC50 in test [1] was below 1 µM. The compound `CCOC(=O)c1ccnc(CNCC(=O)N(CC)CCN(C)C)c1` [drawing 241, ethyl 2-{[({[2-(dimethylamino)ethyl](ethyl)carbamoyl}methyl)amino]methyl}pyridine-4-carboxylate] had an IC50 in test [1] below 1 µM.

Consider `C=CC(CCNC(=O)C(F)(F)F)OC(=O)c1ccnc(CNCC(=O)N(CC)CCN(C)C)c1` (centres unmarked) [drawing 242, 5-(trifluoroacetamido)pent-1-en-3-yl 2-{[({[2-(dimethylamino)ethyl](ethyl)carbamoyl}methyl)amino]methyl}pyridine-4-carboxylate], for which the IC50 in test [1] was below 1 µM.

Turning to `C=CC(CCN(C)C(=O)C(F)(F)F)OC(=O)c1ccnc(CNCC(=O)N(CC)CCN(C)C)c1` (centres unmarked) [drawing 243, 5-(2,2,2-trifluoro-N-methylacetamido)pent-1-en-3-yl 2-{[({[2-(dimethylamino)ethyl](ethyl)carbamoyl}methyl)amino]methyl}pyridine-4-carboxylate], in test [1], the IC50 was below 1 µM. Same read-out and setting: the figure for `CCCCCCCCCCCCCCCC(=O)OCC(COC(=O)CCCCCCCCCCCCCCC)OC(=O)c1ccnc(CNCC(=O)N(CC)CCN(C)C)c1` [drawing 244, 2-(2-{[({[2-(dimethylamino)ethyl](ethyl)carbamoyl}methyl)amino]methyl}pyridine-4-carbonyloxy)-3-(hexadecanoyloxy)propyl hexadecanoate] is below 1 µM. `CCCCCCCCCCCCCCCC(=O)OCC(COC(=O)c1ccnc(CNCC(=O)N(CC)CCN(C)C)c1)OC(=O)CCCCCCCCCCCCCCC` (centres unmarked) [drawing 245, 1-(2-{[({[2-(dimethylamino)ethyl](ethyl)carbamoyl}methyl)amino]methyl}pyridine-4-carbonyloxy)-3-(hexadecanoyloxy)propan-2-yl hexadecanoate]: the IC50 in test [1] is below 1 µM. For `CCN(CCN(C)C)C(=O)CNCc1cc(C(=O)OC)ccn1` [drawing 246, methyl 2-{[({[2-(dimethylamino)ethyl](ethyl)carbamoyl}methyl)amino]methyl}pyridine-4-carboxylate], the IC50 in test [1] was below 1 µM. `CCN(CCC#N)C(=O)CNCc1cc(C(=O)O)ccn1` [drawing 320, 2-[({[(2-cyanoethyl)(ethyl)carbamoyl]methyl}amino)methyl] pyridine-4-carboxylic acid] had an IC50 against PLU1 (KDM5B) of 1 to 50 µM. The same measure, in the same setting: the figure for `CCCCN1CCCC1CCNCc1cc(C(=O)O)ccn1` (centres unmarked) [drawing 321, 2-({[2-(1-butylpyrrolidin-2-yl)ethyl]amino}methyl) pyridine-4-carboxylic acid] is 1 to 50 µM; for `CN(CCCCN(Cc1ccccc1)C1CC1)C(=O)CNCc1cc(C(=O)O)ccn1` [drawing 323] it is above 50 µM.
